The record followed here is patent publication US7309701B2, “Pyridazinone derivatives as pharmaceuticals and pharmaceutical compositions containing them” (Sanofi-Aventis Deutschland GmbH, priority 2002, dated 2007).

Like-named read-outs stand apart in the source and are kept apart here. Bounds are passed on as bounds.

In data set [1] the target is human recombinant GSK-3β (Homo sapiens, UniProt P49841). As to the kind of experiment: GSK-3β activity, AlphaScreen with primed glycogen synthase substrate peptide. Type of data set: biochemical. How it is done: GSK-β activity was measured using human recombinant GSK-3β and a primed (pre-phosphorylated) substrate peptide (derived from glycogen synthase and containing the phosphorylation sites 3a, b, and c) on basis of the AlphaScreen technology in 384-well plate format (small volume plate, white, GREINER).
Sequence of human recombinant GSK-3β (P49841 whole entry): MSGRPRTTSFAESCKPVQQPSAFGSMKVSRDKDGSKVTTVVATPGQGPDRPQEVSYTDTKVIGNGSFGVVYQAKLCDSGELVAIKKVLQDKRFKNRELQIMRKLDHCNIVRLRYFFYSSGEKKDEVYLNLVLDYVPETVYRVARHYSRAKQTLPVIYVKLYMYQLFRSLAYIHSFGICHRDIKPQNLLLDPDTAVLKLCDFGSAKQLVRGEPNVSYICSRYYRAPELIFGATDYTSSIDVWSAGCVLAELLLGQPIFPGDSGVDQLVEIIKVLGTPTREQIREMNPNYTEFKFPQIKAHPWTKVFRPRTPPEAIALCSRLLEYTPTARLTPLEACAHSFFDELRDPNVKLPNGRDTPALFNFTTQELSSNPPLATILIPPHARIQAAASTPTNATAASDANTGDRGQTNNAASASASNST
On the technique in general: Alpha assays give light when donor and acceptor beads are brought close together.

Setting [2] is: human recombinant GSK-3β, 10 μM ATP, 60 min at room temperature, AlphaScreen, read-out: IC50.

By IC50 is commonly meant the concentration that inhibits the measured activity by half. On to `Cc1cc(-c2cc(C(=O)NCCCc3cccnc3)c(=O)[nH]n2)cc(C)c1O` [Example 48, 6-(4-Hydroxy-3,5-dimethyl-phenyl)-3-oxo-2,3-dihydro-pyridazine-4-carboxylic acid (3-pyridin-3-yl-propyl)-amide], for which the 50% inhibitory concentration (IC50) in data set [1] (setting [2]) amounted to 36 nM.

By melting point is commonly meant the temperature, or range, at which the solid turns liquid. The molecule `O=C(NCc1ccc(N2CCOCC2)cc1)c1cc(-c2ccncc2)n[nH]c1=O` [Example 17, N-(4-morpholin-4-ylbenzyl)-3-oxo-6-pyridin-4-yl-2,3-dihydropyridazine-4-carboxamide] gave a melting point of 252 °C. Besides, the half-inhibitory concentration (IC50) in data set [1] (setting [2]) stood at 251 nM.

For `O=C(NCc1ccc(Cl)cc1)c1cc(-c2ccc(O)c(F)c2)n[nH]c1=O` [Example 183, 6-(3-Fluoro-4-hydroxy-phenyl)-3-oxo-2,3-dihydro-pyridazine-4-carboxylic acid 4-chloro-benzylamide], the IC50 in data set [1] came to 39 nM.

On to `O=C(NCc1cccnc1)c1cc(-c2ccncc2)n[nH]c1=O` [Example 14, 3-oxo-6-pyridin-4-yl-N-(pyridin-3-ylmethyl)-2,3-dihydropyridazine-4-carboxamide], for which the melting point was determined as 262 °C. Moreover, the IC50 in data set [1] (setting [2]) came to 97 nM.

For `CCOC(=O)CCNC(=O)c1cc(-c2ccncc2)n[nH]c1=O` [Example 13, Ethyl 3-[(3-oxo-6-pyridin-4-yl-2,3-dihydropyridazine-4-carbonyl)amino]propionate], the melting point was 180 °C.

`CCCCNc1nccc(-c2cc(C(=O)NCc3cccnc3)c(=O)[nH]n2)n1` [Example 219, 6-(2-Butylamino-pyrimidin-4-yl)-3-oxo-2,3-dihydro-pyridazine-4-carboxylic acid(pyridin-3-ylmethyl)-amide]: the IC50 in data set [1] (setting [2]) was found to be 29 nM.

Turning to `Cc1cc(-c2cc(C(=O)NCc3ccc(C(=O)O)cc3)c(=O)[nH]n2)cc(C)c1O` [Example 32, 4-({[6-(4-Hydroxy-3,5-dimethyl-phenyl)-3-oxo-2,3-dihydro-pyridazine-4-carbonyl]-amino}-methyl)-benzoic acid], in data set [1] (setting [2]), the IC50 worked out at 5 nM.

As for `CCCCNC(=O)c1cc(-c2ccncc2)n[nH]c1=O` [Example 12, 3-oxo-6-pyridin-4-yl-N-(n-butyl)-2,3-dihydropyridazine-4-carboxamide], the melting point is 209 °C.

`O=C(NCc1ccc(Br)cc1)c1cc(-c2ccncc2)n[nH]c1=O` [Example 75, 3-Oxo-6-pyridin-4-yl-2,3-dihydro-pyridazine-4-carboxylic acid 4-bromo-benzylamide;compound withtrifluoro-acetic acid]: in data set [1] (setting [2]), the IC50 is 380 nM.

As for `O=C(NCCc1ccc(Cl)cc1Cl)c1cc(-c2ccncc2)n[nH]c1=O` [Example 6, N-[2-(2,4-dichlorophenyl)ethyl]-3-oxo-6-pyridin-4-yl-2,3-dihydropyridazine-4-carboxamide], the melting point came out at 202 °C.

With `O=C(NCc1ccc(Cl)cc1)c1cc(-c2cc(F)c(O)c(F)c2)n[nH]c1=O` [Example 182, 6-(3,5-Difluoro-4-hydroxy-phenyl)-3-oxo-2,3-dihydro-pyridazine-4-carboxylic acid 4-chloro-benzylamide], in data set [1] (setting [2]), the IC50 worked out at 170 nM.

As for `Cc1cc(-c2cc(C(=O)NCc3ccc(Cl)cc3)c(=O)[nH]n2)ccc1O` [Example 155], the IC50 in data set [1] (setting [2]) is 10300 nM.

`CCCCNc1nccc(-c2cc(C(=O)NCCCc3cccnc3)c(=O)[nH]n2)n1` [Example 220, 6-(2-Butylamino-pyrimidin-4-yl)-3-oxo-2,3-dihydro-pyridazine-4-carboxylic acid (3-pyridin-3-yl-propyl)-amide]: in data set [1], the IC50 was 36 nM.

On to `O=C(NCc1ccc(C(F)(F)F)cc1)c1cc(-c2ccncc2)n[nH]c1=O` [Example 112, 3-Oxo-6-pyridin-4-yl-2,3-dihydro-pyridazine-4-carboxylic acid 4-trifluoromethyl-benzylamide;compound withtrifluoro-acetic acid], for which, in data set [1] (setting [2]), the 50% inhibitory concentration (IC50) came to 123 nM.

As to `O=C(NCc1ccc(Cl)cc1)c1cc(-c2ccc(O)c(Cl)c2)n[nH]c1=O` [Example 180, 6-(3-Chloro-4-hydroxy-phenyl)-3-oxo-2,3-dihydro-pyridazine-4-carboxylic acid 4-chloro-benzylamide], the IC50 in data set [1] (setting [2]) worked out at 227 nM.

In the case of `CCNc1nccc(-c2cc(C(=O)NCc3ccc(Cl)cc3)c(=O)[nH]n2)n1` [Example 190, 6-(2-Ethylamino-pyrimidin-4-yl)-3-oxo-2,3-dihydro-pyridazine-4-carboxylic acid 4-chloro-benzylamide], in data set [1] (setting [2]), the IC50 was above 1000 nM.

As for `C[C@@H](Nc1nccc(-c2cc(C(=O)NCCCc3ccccc3)c(=O)[nH]n2)n1)c1ccccc1` [Example 215, R-3-Oxo-6-[2-(1-phenyl-ethylamino)-pyrimidin-4-yl]-2,3-dihydro-pyridazine-4-carboxylic acid(3-phenyl-propyl)-amide], the IC50 in data set [1] (setting [2]) stood at 24 nM.

The molecule `O=C(NCc1cccc(C(F)(F)F)c1)c1cc(-c2ccncc2)n[nH]c1=O` [Example 9, 3-oxo-6-pyridin-4-yl-N-[3-(trifluoromethyl)benzyl]-2,3-dihydropyridazine-4-carboxamide] showed a melting point of 224 °C.

As to `O=C(Nc1ccncc1)c1ccc(CNC(=O)c2cc(-c3ccncc3)n[nH]c2=O)cc1` [Example 156, 3-Oxo-6-pyridin-4-yl-2,3-dihydro-pyridazine-4-carboxylic acid 4-(pyridin-4-ylcarbamoyl)-benzylamide;compound withtrifluoro-acetic acid], the 50% inhibitory concentration (IC50) in data set [1] (setting [2]) stood at 86 nM.

For `O=C(NCc1ccc(Cl)cc1F)c1cc(-c2ccncc2)n[nH]c1=O` [Example 116, 3-Oxo-6-pyridin-4-yl-2,3-dihydro-pyridazine-4-carboxylic acid 4-chloro-2-fluoro-benzylamide;compound withtrifluoro-acetic acid], in data set [1] (setting [2]), the IC50 was 250 nM.

On to `COc1cc(-c2cc(C(=O)NCc3ccc(C(=O)O)cc3)c(=O)[nH]n2)ccc1O` [Example 225, 4-({[6-(4-Hydroxy-3-methoxy-phenyl)-3-oxo-2,3-dihydro-pyridazine-4-carbonyl]-amino}-methyl)-benzoic acid], for which, in data set [1] (setting [2]), the IC50 was determined as 9 nM.

For `O=C(NCc1ccccc1)c1cc(-c2ccncc2)n[nH]c1=O` [Example 3, N-benzyl-3-oxo-6-pyridin-4-yl-2,3-dihydropyridazine-4-carboxamide], the melting point worked out at 258 °C.

`O=C(NCc1ccc(Cl)cc1)c1cc(-c2ccnc(NCCN3CCOCC3)n2)n[nH]c1=O` [Example 175, 6-[2-(2-Morpholin-4-yl-ethylamino)-pyrimidin-4-yl]-3-oxo-2,3-dihydro-pyridazine-4-carboxylic acid 4-chloro-benzylamide;compound withtrifluoro-acetic acid]: the half-inhibitory concentration (IC50) in data set [1] (setting [2]) amounted to 17 nM.

`COc1cc(-c2cc(C(=O)NCCCc3cccnc3)c(=O)[nH]n2)ccc1O` [Example 49, 6-(4-Hydroxy-3-methoxy-phenyl)-3-oxo-2,3-dihydro-pyridazine-4-carboxylic acid (3-pyridin-3-yl-propyl)-amide]: the IC50 in data set [1] (setting [2]) was determined as 1 nM.

Take `COc1cc(-c2cc(C(=O)NCc3ccc(Cl)cc3)c(=O)[nH]n2)ccc1O` [Example 41, 6-(4-Hydroxy-3-methoxy-phenyl)-3-oxo-2,3-dihydro-pyridazine-4-carboxylic acid 4-chloro-benzylamide]: the half-inhibitory concentration (IC50) in data set [1] (setting [2]) was found to be 2300 nM.

Turning to `O=C(NCc1ccc(F)cc1F)c1cc(-c2ccncc2)n[nH]c1=O` [Example 117, 3-Oxo-6-pyridin-4-yl-2,3-dihydro-pyridazine-4-carboxylic acid 2,4-difluoro-benzylamide;compound withtrifluoro-acetic acid], the half-maximal inhibitory concentration (IC50) in data set [1] is 65 nM.

Take `O=C(NCc1ccc(Cl)cc1Cl)c1cc(-c2ccccc2)n[nH]c1=O` [Example 1, N-(2,4-dichlorobenzyl)-3-oxo-6-phenyl-4-yl-2,3-dihydropyridazine-4-carboxamide]: the melting point is ~ 258 °C.

For the molecule `O=C(NCCCc1cccnc1)c1cc(-c2ccc(O)cc2)n[nH]c1=O` [Example 164, 6-(4-Hydroxy-phenyl)-3-oxo-2,3-dihydro-pyridazine-4-carboxylic acid (3-pyridin-3-yl-propyl)-amide], the half-inhibitory concentration (IC50) in data set [1] (setting [2]) worked out at 7 nM.

`O=C(NCc1ccccn1)c1cc(-c2ccncc2)n[nH]c1=O` [Example 15, 3-oxo-6-pyridin-4-yl-N-(pyridin-2-ylmethyl)-2,3-dihydropyridazine-4-carboxamide] had a melting point of 242 °C.

As for `CNc1cc(-c2cc(C(=O)NCc3ccc(Cl)cc3)c(=O)[nH]n2)ccn1` [Example 206, 6-(2-Methylamino-pyridin-4-yl)-3-oxo-2,3-dihydro-pyridazine-4-carboxylic acid 4-chloro-benzylamide], the IC50 in data set [1] (setting [2]) turned out to be 30 nM.

Take `CCCCNc1nccc(-c2cc(C(=O)NCCCN3CCN(C)CC3)c(=O)[nH]n2)n1` [Example 218, 6-(2-Butylamino-pyrimidin-4-yl)-3-oxo-2,3-dihydro-pyridazine-4-carboxylic acid [3-(4-methyl-piperazin-1-yl)-propyl]-amide;compound withtrifluoro-acetic acid]: the IC50 in data set [1] (setting [2]) came to 22 nM.
